Experimental data reported in patent US20230373985A1 (Origenis Gmbh, priority 2020, published 2023).

Experiments:
[1] = biological target: T1, wt human TYK2, catalytic site (Homo sapiens, UniProt P29597); experiment: HTRF KinEASE assay, TYK2; format: biochemical; conditions: 1 μM ATP; read-out: IC50, Activity Toward TYK2
T1 construct: wt human TYK2, catalytic site; purchased SignalChem
T1 sequence (P29597 897-1176 limits assumed): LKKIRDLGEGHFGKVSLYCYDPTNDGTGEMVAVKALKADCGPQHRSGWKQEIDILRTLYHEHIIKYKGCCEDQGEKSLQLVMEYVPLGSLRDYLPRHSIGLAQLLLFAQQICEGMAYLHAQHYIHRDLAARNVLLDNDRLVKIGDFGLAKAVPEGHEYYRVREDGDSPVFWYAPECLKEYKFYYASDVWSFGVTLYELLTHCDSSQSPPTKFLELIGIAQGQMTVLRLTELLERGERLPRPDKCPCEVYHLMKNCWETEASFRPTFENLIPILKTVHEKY
How it was run: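 HTRF KinEASE-TK readout with 1 μM biotinylated TK substrate in 1× kinase buffer, ≥30 min at room temperature, then antibody/streptavidin-XL665 detection for 60 min. TYK2 at 2 nM with 1 μM ATP; JAK2 at 1 nM with 100 μM ATP. Analysis uses emission ratios.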

[2] = biological target: T2, wt human JAK1, catalytic site (Homo sapiens, UniProt P23458); experiment: HTRF KinEASE assay, JAK1; format: biochemical; conditions: 2.5 μM ATP; read-out: IC50, Activity Toward JAK1
T2 construct: wt human JAK1, catalytic site; purchased ThermoFisher
How it was run: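 Two-step HTRF KinEASE assay: compound, kinase/biotinylated TK substrate and ATP were incubated at least 30 min at room temperature. Antibody plus streptavidin-XL665 was then added and plates were read after 60 min. Inhibition was derived from emission ratios according to the kit protocol.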

T2 sequence (P23458 875-1153 limits assumed): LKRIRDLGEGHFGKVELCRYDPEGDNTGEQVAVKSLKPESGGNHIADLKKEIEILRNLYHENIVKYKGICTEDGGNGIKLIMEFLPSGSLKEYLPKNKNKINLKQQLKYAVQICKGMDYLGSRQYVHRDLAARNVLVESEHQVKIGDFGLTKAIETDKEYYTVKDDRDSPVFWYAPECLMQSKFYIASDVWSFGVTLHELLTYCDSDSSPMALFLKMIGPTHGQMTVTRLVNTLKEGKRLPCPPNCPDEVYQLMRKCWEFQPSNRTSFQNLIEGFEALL

Cn1ccc(=O)n1-c1ccc(Nc2cn(-c3c(Cl)cccc3Cl)nc2C(N)=O)cc1 [compound 77, 1-(2,6-dichlorophenyl)-4-((4-(2-methyl-5-oxo-2,5-dihydro-1H-pyrazol-1-yl)phenyl)amino)-1H-pyrazole-3-carboxamide]
IC50 [1]: 100 to 1000 nM
IC50 [2]: 100 to 1000 nM

Cc1cc(C)n(-c2ccc(Nc3cn(-c4c(Cl)cccc4Cl)nc3C(N)=O)cc2)n1 [compound 216, 1-(2,6-dichlorophenyl)-4-((4-(3,5-dimethyl-1H-pyrazol-1-yl)phenyl)amino)-1H-pyrazole-3-carboxamide]
IC50 [1]: 10 to 100 nM
IC50 [2]: 10 to 100 nM

NC(=O)c1nn(-c2c(Cl)cccc2Cl)nc1Nc1ccc(-n2ncc3c2CCOC3)cc1 [compound 110, 2-(2,6-Dichloro-phenyl)-5-[4-(6,7-dihydro-4H-pyrano[4,3-c]pyrazol-1-yl)-phenylamino]-2H-[1,2,3]triazole-4-carboxylic acid amide]
IC50 [1]: 10 to 100 nM
IC50 [2]: 10 to 100 nM

COCCn1cc(C(F)(F)F)nc1-c1ccc(Nc2nn(-c3c(Cl)cccc3Cl)nc2C(N)=O)cc1 [compound 118, 2-(2,6-dichlorophenyl)-5-((4-(1-(2-methoxyethyl)-4-(trifluoromethyl)-1H-imidazol-2-yl)phenyl)amino)-2H-1,2,3-triazole-4-carboxamide]
IC50 [1]: 100 to 1000 nM
IC50 [2]: 10 to 100 nM

Cn1cnnc1-c1ccc(Nc2cn(-c3c(Cl)cccc3Cl)nc2C(N)=O)cn1 [compound 360, 1-(2,6-dichlorophenyl)-4-((6-(4-methyl-4H-1,2,4-triazol-3-yl)pyridin-3-yl)amino)-1H-pyrazole-3-carboxamide]
IC50 [1]: 10 to 100 nM
IC50 [2]: 100 to 1000 nM

NC(=O)c1nn(-c2c(Cl)cccc2Cl)cc1Nc1ccc(C(=O)N2CCCC2)nc1 [compound 358, 1-(2,6-dichlorophenyl)-4-((6-(pyrrolidine-1-carbonyl)pyridin-3-yl)amino)-1H-pyrazole-3-carboxamide]
IC50 [1]: 10 to 100 nM
IC50 [2]: 100 to 1000 nM

N#Cc1cccc(Cl)c1-n1cc(Nc2ccc(C(=O)N3CC[C@@H](F)C3)cc2)c(C(N)=O)n1 [compound 459, 1-(2-Chloro-6-cyano-phenyl)-4-[4-((R)-3-fluoro-pyrrolidine-1-carbonyl)-phenylamino]-1H-pyrazole-3-carboxylic acid amide]
IC50 [1]: < 10 nM
IC50 [2]: 10 to 100 nM

NC(=O)c1nn(-c2c(Cl)cccc2Cl)cc1Nc1ccc(-c2nnc3n2CCCC3)cc1 [compound 55, 1-(2,6-dichlorophenyl)-4-((4-(5,6,7,8-tetrahydro-[1,2,4]triazolo[4,3-a]pyridin-3-yl)phenyl)amino)-1H-pyrazole-3-carboxamide]
IC50 [1]: 10 to 100 nM
IC50 [2]: 100 to 1000 nM

CCn1ncnc1-c1ccc(Nc2nn(-c3c(Cl)cccc3Cl)nc2C(N)=O)nc1 [compound 142, 2-(2,6-dichlorophenyl)-5-((5-(1-ethyl-1H-1,2,4-triazol-5-yl)pyridin-2-yl)amino)-2H-1,2,3-triazole-4-carboxamide]
IC50 [1]: 100 to 1000 nM
IC50 [2]: 10 to 100 nM

NC(=O)c1nn(-c2c(Cl)cccc2Cl)cc1Nc1ccc(-c2nnc3cccc(C(F)(F)F)n23)nc1 [compound 471, 1-(2,6-dichlorophenyl)-4-((6-(5-(trifluoromethyl)-[1,2,4]triazolo[4,3-a]pyridin-3-yl)pyridin-3-yl)amino)-1H-pyrazole-3-carboxamide]
IC50 [1]: 100 to 1000 nM
IC50 [2]: 100 to 1000 nM

CN1CCC(Oc2ccc(Nc3cn(-c4c(Cl)cccc4Cl)nc3C(N)=O)cn2)CC1 [compound 405, 1-(2,6-dichlorophenyl)-4-((6-((1-methylpiperidin-4-yl)oxy)pyridin-3-yl)amino)-1H-pyrazole-3-carboxamide]
IC50 [1]: 100 to 1000 nM
IC50 [2]: 100 to 1000 nM

NC(=O)c1nn(-c2c(Cl)cccc2Cl)nc1Nc1ccc(C(=O)NCCF)cc1 [compound 128, 2-(2,6-dichlorophenyl)-5-((4-((2-fluoroethyl)carbamoyl)phenyl)amino)-2H-1,2,3-triazole-4-carboxamide]
IC50 [1]: < 10 nM
IC50 [2]: < 10 nM

NC(=O)c1nn(-c2c(Cl)cccc2Cl)nc1Nc1cnn(CC(=O)N2CCOCC2)c1 [compound 168, 2-(2,6-dichlorophenyl)-5-((1-(2-morpholino-2-oxoethyl)-1H-pyrazol-4-yl)amino)-2H-1,2,3-triazole-4-carboxamide]
IC50 [1]: 10 to 100 nM
IC50 [2]: 10 to 100 nM

NC(=O)c1nn(-c2c(Cl)cccc2Cl)cc1Nc1ccc(-c2nc(C(F)(F)F)cn2CCO)nc1 [compound 373, 1-(2,6-dichlorophenyl)-4-((6-(1-(2-hydroxyethyl)-4-(trifluoromethyl)-1H-imidazol-2-yl)pyridin-3-yl)amino)-1H-pyrazole-3-carboxamide]
IC50 [1]: 10 to 100 nM
IC50 [2]: 100 to 1000 nM

NC(=O)c1nn(-c2c(Cl)cccc2Cl)nc1Nc1ccc(C(=O)N2CCS(=O)(=O)CC2)cn1 [compound 160, 2-(2,6-dichlorophenyl)-5-((5-(1,1-dioxidothiomorpholine-4-carbonyl)pyridin-2-yl)amino)-2H-1,2,3-triazole-4-carboxamide]
IC50 [1]: < 10 nM
IC50 [2]: 10 to 100 nM

Cn1cc(C(F)(F)F)nc1-c1ccc(Nc2nn(-c3c(Cl)cccc3Cl)nc2C(N)=O)nc1 [compound 144, 2-(2,6-dichlorophenyl)-5-((5-(1-methyl-4-(trifluoromethyl)-1H-imidazol-2-yl)pyridin-2-yl)amino)-2H-1,2,3-triazole-4-carboxamide]
IC50 [1]: 10 to 100 nM
IC50 [2]: 10 to 100 nM

NC(=O)c1nn(-c2c(Cl)cccc2Cl)cc1Nc1ccc(C(=O)N2CCN(C3CC3)CC2)nc1 [compound 364, 4-((6-(4-cyclopropylpiperazine-1-carbonyl)pyridin-3-yl)amino)-1-(2,6-dichlorophenyl)-1H-pyrazole-3-carboxamide]
IC50 [1]: 10 to 100 nM
IC50 [2]: 100 to 1000 nM

CN(C)C1CCN(C(=O)c2ccc(Nc3nn(-c4c(Cl)cccc4Cl)nc3C(N)=O)nc2)CC1 [compound 149, 2-(2,6-dichlorophenyl)-5-((5-(4-(dimethylamino)piperidine-1-carbonyl)pyridin-2-yl)amino)-2H-1,2,3-triazole-4-carboxamide]
IC50 [1]: 10 to 100 nM
IC50 [2]: < 10 nM

CCc1ccnn1-c1ccc(Nc2cn(-c3c(Cl)cccc3Cl)nc2C(N)=O)cc1 [compound 241, 1-(2,6-dichlorophenyl)-4-((4-(5-ethyl-1H-pyrazol-1-yl)phenyl)amino)-1H-pyrazole-3-carboxamide]
IC50 [1]: 10 to 100 nM
IC50 [2]: < 10 nM

Cc1ncnn1-c1ccc(Nc2cn(-c3c(Cl)cccc3Cl)nc2C(N)=O)nc1 [compound 430, 1-(2,6-dichlorophenyl)-4-((5-(5-methyl-1H-1,2,4-triazol-1-yl)pyridin-2-yl)amino)-1H-pyrazole-3-carboxamide]
IC50 [1]: 100 to 1000 nM
IC50 [2]: 100 to 1000 nM

NC(=O)c1nn(-c2c(Cl)cccc2Cl)nc1Nc1ccc(C(=O)N2CCC(F)C2)cn1 (stereo in doubt) [compound 130, (S)-2-(2,6-dichlorophenyl)-5-((5-(3-fluoropyrrolidine-1-carbonyl)pyridin-2-yl)amino)-2H-1,2,3-triazole-4-carboxamide]
IC50 [1]: 10 to 100 nM
IC50 [2]: 100 to 1000 nM

CCc1cnncc1-c1ccc(Nc2cn(-c3c(Cl)cccc3Cl)nc2C(N)=O)cn1 [compound 351, 1-(2,6-dichlorophenyl)-4-((6-(5-ethylpyridazin-4-yl)pyridin-3-yl)amino)-1H-pyrazole-3-carboxamide]
IC50 [1]: 10 to 100 nM
IC50 [2]: 100 to 1000 nM
